Consider ten compounds from patent publication US20140296266A1, “THERAPEUTIC COMPOUNDS” (Gilead Sciences, Inc., priority 2013, published 2014).

What is called CC50 is the concentration that lowers cell viability or growth by half.

Series [1] is described as follows: Test B: Cytotoxicity Assay. The format is cell-based. As to conditions: human, uninfected MT-4 cells, same protocol as Test A, CellTiter-Glo. The protocol: (§1) For the antiviral assay, 40 μL of 1× test concentration of 3-fold serially diluted compound in culture medium with 10% FBS was added to each well of a 384-well plate (10 concentrations) in quadruplicate. MT-4 cells were next mixed with HIV-IIIb at an m.o.i of 0.003 for 1 hour, after which time 35 μL of virus/cell mixture (2000 cells) was immediately added to each well containing 40 μL of diluted compound. The plates were then incubated at 37° C. for 5 days. After 5 days of incubation, 25 μl of 2× concentrated CellTiter-Glo™ Reagent (catalog #G7571, Promega Biosciences, Inc., Madison, Wis.) was added to each well containing MT-4 cells. Cell lysis was carried out by incubating at room temperature for 10 min and then chemiluminescence was read.
Compound cytotoxicity and the corresponding CC50 values was determined using the same protocol as described in the antiviral assay (Test A) except that uninfected cells were used.
A general note: In ATP-based viability assays light output follows the ATP content of the culture.

The subject of series [2] is HIV-IIIb. Put plainly: Test A: Antiviral Assay in MT4 Cells. The format is cell-based, HIV-1. As to conditions: Human immunodeficiency virus 1, IIIB, MT4, 120 h, read-out: % inhibition at 2 μM (percent inhibition of virus-induced cell killing), 2 μM drug concentration; MT-4 cells mixed with HIV-IIIb (m.o.i. 0.003), 5 days, CellTiter-Glo; calculated from the dose response curve. The protocol:
as §1

In turn, `CC(C)(O)C#Cc1cnc([C@H](Cc2cc(F)cc(F)c2)NC(=O)Cn2nc(C(F)F)c3c2C(F)(F)CCC3(F)F)c(-c2ccc3c(c2)C(=O)NC3)c1` [Compound 4H, (S)-2-(3-(difluoromethyl)-4,4,7,7-tetrafluoro-4,5,6,7-tetrahydro-1H-indazol-1-yl)-N-(2-(3,5-difluorophenyl)-1-(5-(3-hydroxy-3-methylbut-1-ynyl)-3-(3-oxoisoindolin-5-yl)pyridin-2-yl)ethyl)acetamide] came in with a CC50 at 5 days in series [1] of 22.8 µM. The inhibition at 2 µM in series [2] is 74%.
Turning to `COc1cc(-c2ccc(-c3ccc4c(c3)C(=O)NC4)c([C@H](Cc3cc(F)cc(F)c3)NC(=O)Cn3nc(C(F)F)c4c3C(F)(F)CCC4(F)F)n2)ccn1` [Compound 8C, (S)-2-(3-(difluoromethyl)-4,4,7,7-tetrafluoro-4,5,6,7-tetrahydro-1H-indazol-1-yl)-N-(2-(3,5-difluorophenyl)-1-(2′-methoxy-5-(3-oxoisoindolin-5-yl)-[2,4′-bipyridin]-6-yl)ethyl)acetamide], in series [1], half-maximal cytotoxicity (CC50 at 5 days) was put at 22 µM. For the same compound, the inhibition at 2 µM in series [2] was 86%.
In series [1], `CC(C)(O)C#Cc1ccc(-c2ccc3c(c2)C(=O)NC3)c([C@H](Cc2cc(F)cc(F)c2)NC(=O)Cn2nc(C(F)F)c3c2C(F)(F)CCC3(F)F)n1` [Compound 9B, (S)-2-(3-(difluoromethyl)-4,4,7,7-tetrafluoro-4,5,6,7-tetrahydro-1H-indazol-1-yl)-N-(2-(3,5-difluorophenyl)-1-(6-(3-hydroxy-3-methylbut-1-yn-1-yl)-3-(3-oxoisoindolin-5-yl)pyridin-2-yl)ethyl)acetamide] had a CC50 at 5 days of 14.6 µM. The inhibition at 2 µM in series [2] was 95%.
On to `O=C(Cn1nc(C(F)F)c2c1C(F)(F)CCC2(F)F)N[C@@H](Cc1cc(F)cc(F)c1)c1ncc(-c2ccc3c(c2)C(=O)NC3)cc1-c1ccc2c(c1)C(=O)NC2` [Compound 10B, (S)—N-(1-(3,5-bis(3-oxoisoindolin-5-yl)pyridin-2-yl)-2-(3,5-difluorophenyl)ethyl)-2-(3-(difluoromethyl)-4,4,7,7-tetrafluoro-4,5,6,7-tetrahydro-1H-indazol-1-yl)acetamide], for which the CC50 at 5 days in series [1] was over 53.2 µM. In addition, in series [2], the inhibition at 2 µM is 85%.
The corresponding values for `NC(=O)c1ccc(-c2cnc3[nH]ccc3c2)c([C@H](Cc2cc(F)cc(F)c2)NC(=O)Cn2nc(C(F)F)c3c2C(F)(F)CCC3(F)F)n1` [Compound 1B, (S)-6-(1-(2-(3-(difluoromethyl)-4,4,7,7-tetrafluoro-4,5,6,7-tetrahydro-1H-indazol-1-yl)acetamido)-2-(3,5-difluorophenyl)ethyl)-5-(1H-pyrrolo[2,3-b]pyridin-5-yl)picolinamide] are 8.57 µM and 77%.
The corresponding values for `O=C(Cn1nc(C(F)F)c2c1C(F)(F)CCC2(F)F)N[C@@H](Cc1cc(F)cc(F)c1)c1nc(-c2ccc3c(c2)C(=O)NC3)ccc1-c1ccc2c(c1)C(=O)NC2` [Compound 6, (S)—N-(1-(3,6-bis(3-oxoisoindolin-5-yl)pyridin-2-yl)-2-(3,5-difluorophenyl)ethyl)-2-(3-(difluoromethyl)-4,4,7,7-tetrafluoro-4,5,6,7-tetrahydro-1H-indazol-1-yl)acetamide] are over 53.2 µM and 73%.
In series [1], `O=C(Cn1nc(C(F)F)c2c1C(F)(F)CCC2(F)F)N[C@@H](Cc1cc(F)cc(F)c1)c1nc(-c2cnc3[nH]ccc3c2)ccc1-c1cnc2[nH]ccc2c1` [Compound 7, (S)—N-(1-(3,6-bis(1H-pyrrolo[2,3-b]pyridin-5-yl)pyridin-2-yl)-2-(3,5-difluorophenyl)ethyl)-2-(3-(difluoromethyl)-4,4,7,7-tetrafluoro-4,5,6,7-tetrahydro-1H-indazol-1-yl)acetamide] came in with a 50% cytotoxic concentration (CC50) at 5 days of 5.66 µM. Moreover, the inhibition at 2 µM in series [2] was 92%.
`O=C(Cn1nc(C(F)F)c2c1C(F)(F)CCC2(F)F)N[C@@H](Cc1cc(F)cc(F)c1)c1nc(-c2cc[nH]c(=O)c2)ccc1-c1ccc2c(c1)C(=O)NC2` [Compound 12, (S)-2-(3-(difluoromethyl)-4,4,7,7-tetrafluoro-4,5,6,7-tetrahydro-1H-indazol-1-yl)-N-(2-(3,5-difluorophenyl)-1-(2′-oxo-5-(3-oxoisoindolin-5-yl)-1′,2′-dihydro-[2,4′-bipyridin]-6-yl)ethyl)acetamide] displayed a CC50 at 5 days in series [1] of over 53.2 µM. In series [2], the inhibition at 2 µM is 58%.
For `CC(C)(O)C#Cc1ccc(-c2cccc3c(=O)[nH]c(=O)[nH]c23)c([C@H](Cc2cc(F)cc(F)c2)NC(=O)Cn2nc(C(F)(F)F)c3c2C(F)(F)[C@@H]2C[C@H]32)n1` [Compound 17, 2-((3bS,4aR)-5,5-difluoro-3-(trifluoromethyl)-3b,4,4a,5-tetrahydro-1H-cyclopropa[3,4]cyclopenta[1,2-c]pyrazol-1-yl)-N—((S)-2-(3,5-difluorophenyl)-1-(3-(2,4-dioxo-1,2,3,4-tetrahydroquinazolin-8-yl)-6-(3-hydroxy-3-methylbut-1-ynyl)pyridin-2-yl)ethyl)acetamide], in that order: 12.6 µM and 80%.
For `CC(C)(O)C#Cc1ccc(-c2cccc3c(=O)[nH]cnc23)c([C@H](Cc2cc(F)cc(F)c2)NC(=O)Cn2nc(C(F)(F)F)c3c2C(F)(F)[C@@H]2C[C@H]32)n1` [Compound 2, 2-((3bS,4aR)-5,5-difluoro-3-(trifluoromethyl)-3b,4,4a,5-tetrahydro-1H-cyclopropa[3,4]cyclopenta[1,2-c]pyrazol-1-yl)-N—((S)-2-(3,5-difluorophenyl)-1-(6-(3-hydroxy-3-methylbut-1-yn-1-yl)-3-(4-oxo-3,4-dihydroquinazolin-8-yl)pyridin-2-yl)ethyl)acetamide], in that order: 14.3 µM and 90%.
